US12098386B2, “Use of germ cells for preparing a micro hair follicle” (L'OREAL, priority 2016, dated 2024)

Test system: germ cells
Assay: Culture-amplification of germ cells on 3T3 feeder layer in Green 7F medium with or without ROCK inhibitor
Format: cell-based
From the text: The germ cell region, called the bulge (FIG. 1), is extracted from the connective tissue sheath (FIG. 2) and then placed in a petri dish containing 3T3i cells (FIG. 3).
The hair follicles are extracted from a surgical residue of scalp. Said residue is first cut into 5 mm^2 portions and then sectioned using a scalpel between the dermis and the hypodermis.
The follicles are extracted using ophthalmic surgery forceps and are then sectioned just above the papilla with a scalpel. The bulb is then recovered. At this stage, the bulb comprises two compartments: the dermal compartment (dermal papilla and connective tissue sheath) and the matrix cells which form a cell mass.
The epithelial part is separated from the dermal part using perfusion needles. Only the epithelial part is cultured.
The MEM medium+10% FCS+7F (called Green 7F medium) has the following composition:
After microdissection, the hair follicles in the telogen phase are deposited in Petri dishes 60 mm in diameter, seeded beforehand with 1 million 3T3 cells, and covered with the complete Green 7F culture medium; a culture of germ cells at confluence is obtained.
The telogen hair with the non-dissociated germ cell clump are isolated and deposited on a 3T3 feeder layer (FIG. 3). After 3 d of culture, the cells begin to proliferate in the form of a colony around the germ clump (FIG. 4). The cells reach subconfluence in 7 days (FIG. 5). […]

SMILES: C[C@@H](N)[C@H]1CC[C@H](C(=O)Nc2ccncc2)CC1 [Y27632]
- Differentiation of germ cells into marker-positive keratinocytes (K15, CD29, CD200) (germ cells cultured in 7F medium containing the rock inhibitor (FIG. 6)): keratinocytes that are positive for the K15, CD29 and CD200 markers
- Proliferation of the germ cells (reaching confluence) (green 7F medium, Y27632 at 10 μM, in the same medium without the rock inhibitor the cells do not proliferate (FIG. 7a/7b)): very rapidly reaching confluence
